Laboratory results from a compilation of properties of binary mixtures (doi:10.1021/je500765m).

Experiment: xn = mol fraction of the nth substance listed
Details: 101 kPa, x2 = 0.0138

CCCC[n+]1ccn(C)c1.N#C[C-](C#N)C#N + O
Details	viscosity [mPa·s]
293.15 K	32.77
298.15 K	26.47
303.15 K	21.7
308.15 K	18.08
313.15 K	15.3
318.15 K	13.09
323.15 K	11.32
338.15 K	7.748
343.15 K	6.933
353.15 K	5.658
358.15 K	5.155
363.15 K	4.718
